Measurements reported in US9255101B2 (BIOPROJECT, priority 2012, dated 2016).
Where a name gives a salt, the structure may show the parent alone.

Molecular target: human H4 receptor (Homo sapiens, UniProt Q9H3N8)
Experiment: biochemical
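Further: radioligand displacement of a [3H]-labelled ligand from membranes of CHO cells stably expressing human H4 receptor, bound radioactivity counted on filters by liquid scintillation.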

Sequence of human H4 receptor (Q9H3N8 whole entry): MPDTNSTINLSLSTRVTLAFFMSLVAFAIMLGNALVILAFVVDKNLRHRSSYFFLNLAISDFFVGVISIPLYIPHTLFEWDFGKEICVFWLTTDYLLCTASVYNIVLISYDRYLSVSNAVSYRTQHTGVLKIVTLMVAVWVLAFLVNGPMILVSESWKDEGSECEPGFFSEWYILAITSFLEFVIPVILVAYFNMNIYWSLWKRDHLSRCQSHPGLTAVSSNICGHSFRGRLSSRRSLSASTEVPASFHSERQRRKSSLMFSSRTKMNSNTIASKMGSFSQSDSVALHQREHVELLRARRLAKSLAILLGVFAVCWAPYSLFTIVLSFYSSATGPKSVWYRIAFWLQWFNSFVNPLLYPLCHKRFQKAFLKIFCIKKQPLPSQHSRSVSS

| Structure (SMILES) | Ki [nM] |
| --- | --- |
| Cc1c(-c2ccc(N3CCN(C(C)C)C3=O)cc2)nc2n1CCc1ccccc1C2OC1CCN(C)CC1 (stereo not drawn) [Example 178, 1-isopropyl-3-{4-[1-methyl-4-(1-methylpiperidin-4-yloxy)-9,10-dihydro-4H-3,10a-diaza-benzo[f]azulen-2-yl]-phenyl}-imidazolidin-2-one] | < 30 |
| CN1CCC(OC2c3ccccc3CCn3cc(-c4ccccc4CO)nc32)CC1 (stereo not drawn) [Example 179, {2-[4-(1-methylpiperidin-4-yloxy)-9,10-dihydro-4H-3,10a-diaza-benzo[f]azulen-2-yl]-phenyl}-methanol oxalate] | < 300 |
| CN(C)CCOc1ccc(-c2cn3c(n2)C(OC2CCN(C)CC2)c2ccccc2CC3)cc1 (stereo not drawn) [Example 180, dimethyl-(2-{4-[4-(1-methylpiperidin-4-yloxy)-9,10-dihydro-4H-3,10a-diaza-benzo[f]azulen-2-yl]-phenoxy}-ethyl)-amine] | < 300 |
| CN1CCC(OC2c3ccccc3CCn3cc(-c4ccc(CN5CCOC5=O)cc4)nc32)CC1 (stereo not drawn) [Example 181, 3-{4-[4-(1-methylpiperidin-4-yloxy)-9,10-dihydro-4H-3,10a-diaza-benzo[f]azulen-2-yl]-benzyl}-oxazolidin-2-one] | < 300 |
| CN1CCC(OC2c3ccccc3CCn3cc(-c4ccc(CN(C)C(=O)OC(C)(C)C)cc4)nc32)CC1 (stereo not drawn) [Example 182, methyl-{4-[4-(1-methylpiperidin-4-yloxy)-9,10-dihydro-4H-3,10a-diaza-benzo[f]azulen-2-yl]benzyl}-carbamic acid tert-butyl ester] | < 300 |
| C=CCOc1ccc(-c2cn3c(n2)C(OC2CCN(C)CC2)c2ccccc2CC3)cc1 (stereo not drawn) [Example 183, 2-(4-allyloxyphenyl)-4-(1-methylpiperidin-4-yloxy)-9,10-dihydro-4H-3,10a-diaza-benzo[f]azulene] | < 30 |
| CN1CCC(OC2c3ccccc3CCn3cc(-c4ccc(CN5CCCC5=O)cc4)nc32)CC1 (stereo not drawn) [Example 184, 1-{4-[4-(1-methylpiperidin-4-yloxy)-9,10-dihydro-4H-3,10a-diaza-benzo[f]azulen-2-yl]benzyl}-pyrrolidin-2-one] | < 1000 |
| CN1CCC(OC2c3ccccc3CCn3cc(-c4ccc(CN5CCCCC5=O)cc4)nc32)CC1 (stereo not drawn) [Example 185, 1-{4-[4-(1-methylpiperidin-4-yloxy)-9,10-dihydro-4H-3,10a-diaza-benzo[f]azulen-2-yl]benzyl}-piperidin-2-one] | < 300 |
| CC(C)SCc1ccc(-c2cn3c(n2)C(OC2CCN(C)CC2)c2ccccc2CC3)cc1 (stereo not drawn) [Example 186, 2-(4-isopropylsulfanylmethylphenyl)-4-(1-methylpiperidin-4-yloxy)-9,10-dihydro-4H-3,10a-diaza-benzo[f]azulene] | < 300 |
| CN1CCC(OC2c3ccccc3CCn3cc(-c4ccc(CCSC(C)(C)C)cc4)nc32)CC1 (stereo not drawn) [Example 189, 2-[4-(2-tert-butylsulfanylethyl)-phenyl]-4-(1-methylpiperidin-4-yloxy)-9,10-dihydro-4H-3,10a-diaza-benzo[f]azulene] | < 300 |
| CN1CCC(OC2c3ccccc3CCn3cc(-c4ccccc4[N+](=O)[O-])nc32)CC1 (stereo not drawn) [Example 190, 4-(1-methylpiperidin-4-yloxy)-2-(2-nitrophenyl)-9,10-dihydro-4H-3,10a-diaza-benzo[f]azulene] | < 300 |
| CN1CCC(OC2c3ccccc3CCn3cc(-c4ccc(CN5CCN(C(C)(C)C)C5=O)cc4)nc32)CC1 (stereo not drawn) [Example 191, 1-tertbutyl-3-{4-[4-(1-methylpiperidin-4-yloxy)-9,10-dihydro-4H-3,10a-diaza-benzo[f]azulen-2-yl]benzyl}-imidazolidin-2-one] | < 300 |
| CN1CCC(OC2c3ccccc3CCn3cc(-c4ccc(CCO)cc4)nc32)CC1 (stereo not drawn) [Example 192, 2-{4-[4-(1-methylpiperidin-4-yloxy)-9,10-dihydro-4H-3,10a-diaza-benzo[f]azulen-2-yl]-phenyl}-ethanol] | < 300 |
| CN1CCC(OC2c3ccccc3CCn3cc(-c4ccc(OCC5CC5)cc4)nc32)CC1 (stereo not drawn) [Example 193, 2-(4-cyclopropylmethoxyphenyl)-4-(1-methylpiperidin-4-yloxy)-9,10-dihydro-4H-3,10a-diaza-benzo[f]azulene] | < 300 |
| CN1CCC(OC2c3ccccc3CCn3cc(-c4ccc(CCNC(=O)OC(C)(C)C)cc4)nc32)CC1 (stereo not drawn) [Example 196] | < 300 |
| CN1CCC(OC2c3ccccc3CCn3cc(-c4ccc(CCN(C)C(=O)OC(C)(C)C)cc4)nc32)CC1 (stereo not drawn) [Example 197, methyl-(2-{4-[4-(1-methylpiperidin-4-yloxy)-9,10-dihydro-4H-3,10a-diaza-benzo[f]azulen-2-yl]-phenyl}-ethyl)-carbamic acid tert-butyl ester] | < 30 |
| CN1CCC(OC2c3ccccc3CCn3cc(-c4ccc(CN5C(=O)OC(C)(C)C5=O)cc4)nc32)CC1 (stereo not drawn) [Example 198, 5,5-dimethyl-3-{4-[4-(1-methylpiperidin-4-yloxy)-9,10-dihydro-4H-3,10a-diaza-benzo[f]azulen-2-yl]benzyl}-oxazolidine-2,4-dione] | < 300 |

| Structure (SMILES) | Ki [nM] |
| --- | --- |
| CN1CCC(OC2c3ccccc3CCn3cc(-c4ccc(CSCCNC(=O)OC(C)(C)C)cc4)nc32)CC1 (stereo not drawn) [Example 199, (2-{4-[4-(1-methylpiperidin-4-yloxy)-9,10-dihydro-4H-3,10a-diaza-benzo[f]azulen-2-yl]benzylsulfanyl}-ethyl)-carbamic acid tert-butyl ester] | < 300 |
| CN1CCC(OC2c3ccccc3CCn3cc(-c4ccc(CCOC(=O)NC(C)(C)C)cc4)nc32)CC1 (stereo not drawn) [Example 200, tert-butyl-carbamic acid 2-{4-[4-(1-methylpiperidin-4-yloxy)-9,10-dihydro-4H-3,10a-diaza-benzo[f]azulen-2-yl]-phenyl}-ethyl ester] | < 300 |
| CN1CCC(OC2c3ccccc3CCn3cc(C(C)(C)c4ccccc4)nc32)CC1 (stereo not drawn) [Example 207, 2-(1-methyl-1-phenyl-ethyl)-4-(1-methylpiperidin-4-yloxy)-9,10-dihydro-4H-3,10a-diaza-benzo[f]azulene] | < 1000 |
| Cc1c(-c2ccc(NC(=S)NC3CC3)cc2)nc2n1CCc1ccccc1C2OC1CCN(C)CC1 (stereo not drawn) [Example 208, 1-cyclopropyl-3-{4-[1-methyl-4-(1-methylpiperidin-4-yloxy)-9,10-dihydro-4H-3,10a-diaza-benzo[f]azulen-2-yl]-phenyl}-thiourea] | < 300 |
| Cc1c(-c2ccc(NC(=O)NC(C)(C)C)cc2)nc2n1CCc1ccccc1C2OC1CCN(C)CC1 (stereo not drawn) [Example 209, 1-tertbutyl-3-{4-[1-methyl-4-(1-methylpiperidin-4-yloxy)-9,10-dihydro-4H-3,10a-diaza-benzo[f]azulen-2-yl]-phenyl}-urea] | < 30 |
| Cc1c(C(O)C(C)C)nc2n1CCc1ccccc1C2OC1CCN(C)CC1 (stereo not drawn) [Example 210, 2-methyl-1-[1-methyl-4-(1-methylpiperidin-4-yloxy)-9,10-dihydro-4H-3,10a-diaza-benzo[f]azulen-2-yl]-propan-1-ol, oxalate] | < 1000 |
| Cc1c(-c2ccc(SCCNC(=N)N)cc2)nc2n1CCc1ccccc1C2OC1CCN(C)CC1 (stereo not drawn) [Example 211, N-(2-{4-[1-methyl-4-(1-methylpiperidin-4-yloxy)-9,10-dihydro-4H-3,10a-diaza-benzo[f]azulen-2-yl]-phenylsulfanyl}-ethyl)-guanidine] | < 30 |
| CN1CCC(OC2c3ccccc3CCn3cc(-c4ccc(C(=O)NCCO)cc4)nc32)CC1 (stereo not drawn) [Example 212, N-(2-hydroxyethyl)-4-[4-(1-methylpiperidin-4-yloxy)-9,10-dihydro-4H-3,10a-diaza-benzo[f]azulen-2-yl]benzamide] | < 1000 |
| Cc1c(-c2ccc(NC(=O)NC34CC5CC(CC(C5)C3)C4)cc2)nc2n1CCc1ccccc1C2OC1CCN(C)CC1 (stereo not drawn) [Example 213, 1-adamantan-1-yl-3-{4-[1-methyl-4-(1-methylpiperidin-4-yloxy)-9,10-dihydro-4H-3,10a-diaza-benzo[f]azulen-2-yl]-phenyl}-urea] | < 30 |
| CN1CCC(OC2c3ccccc3CCn3cc(-c4ccc(C(=O)N5CCC(=O)CC5)cc4)nc32)CC1 (stereo not drawn) [Example 215, 1-{4-[4-(1-methylpiperidin-4-yloxy)-9,10-dihydro-4H-3,10a-diaza-benzo[f]azulen-2-yl]-benzoyl}-piperidin-4-one] | < 300 |
| Cc1c(-c2ccc(C(=O)NC3CCC(O)CC3)cc2)nc2n1CCc1ccccc1C2OC1CCN(C)CC1 (stereo not drawn) [Example 216, N-(4-hydroxycyclohexyl)-4-[1-methyl-4-(1-methylpiperidin-4-yloxy)-9,10-dihydro-4H-3,10a-diaza-benzo[f]azulen-2-yl]-benzamide] | < 300 |
| Cc1c(-c2ccc(C(=O)NCCO)cc2)nc2n1CCc1ccccc1C2OC1CCN(C)CC1 (stereo not drawn) [Example 217, N-(2-hydroxyethyl)-4-[1-methyl-4-(1-methylpiperidin-4-yloxy)-9,10-dihydro-4H-3,10a-diaza-benzo[f]azulen-2-yl]-benzamide] | < 300 |
| Cc1c(-c2ccc(C(=O)N3CCC(=O)CC3)cc2)nc2n1CCc1ccccc1C2OC1CCN(C)CC1 (stereo not drawn) [Example 218, 1-{4-[1-methyl-4-(1-methylpiperidin-4-yloxy)-9,10-dihydro-4H-3,10a-diaza-benzo[f]azulen-2-yl]-benzoyl}-piperidin-4-one] | < 300 |
| Cc1c(-c2ccc(C(=O)N3CCC(O)CC3)cc2)nc2n1CCc1ccccc1C2OC1CCN(C)CC1 (stereo not drawn) [Example 220, (4-hydroxypiperidin-1-yl)-{4-[1-methyl-4-(1-methylpiperidin-4-yloxy)-9,10-dihydro-4H-3,10a-diaza-benzo[f]azulen-2-yl]-phenyl}-methanone] | < 300 |
| Cc1c(-c2ccc(CCNC(=O)OC(C)(C)C)cc2)nc2n1CCc1ccccc1C2OC1CCN(C)CC1 (stereo not drawn) [Example 223, (2-{4-[1-methyl-4-(1-methylpiperidin-4-yloxy)-9,10-dihydro-4H-3,10a-diaza-benzo[f]azulen-2-yl]-phenyl}-ethyl)-carbamic acid tert-butyl ester] | < 30 |
| Cc1c(C#CCCO)nc2n1CCc1ccccc1C2OC1CCN(C)CC1 (stereo not drawn) [Example 227, 4-[1-methyl-4-(1-methylpiperidin-4-yloxy)-9,10-dihydro-4H-3,10a-diaza-benzo[f]azulen-2-yl]-but-3-yn-1-ol] | < 300 |
